Results: patent US10538555B2, “Macrocyclic inhibitors of the PD-1/PD-L1 and CD80(B7-1)/PD-L1 protein/protein interactions” (BRISTOL-MYERS SQUIBB COMPANY, priority 2014, dated 2020)
*1 amine or outer side, *2 acyl side, *3 side chain or, on linkers, in order; H or OH if unused. Where a SMILES comes first, the peptide text is derived from it. Bridges are numbered along the chain shown (N, C = ends). [ ]: non-standard residue; d: D form. ξ: configuration not given here. X10 = CC(C)C[C@H](CC(=O)[C@H](Cc1cnc[nH]1)N[*:1])C(=O)[*:2]; Phe(3,4,5-F3) = N[C@@H](Cc1cc(F)c(F)c(F)c1)C(=O)O; Phe(3,4-F2) = N[C@@H](Cc1ccc(F)c(F)c1)C(=O)O; Phe(4-Me) = Cc1ccc(C[C@H](N)C(=O)O)cc1; d(cisHyp) = O=C(O)[C@H]1C[C@@H](O)CN1; Bta = N[C@@H](Cc1csc2ccccc12)C(=O)O; Hyp = O=C(O)[C@@H]1C[C@@H](O)CN1; NMeF = CN[C@@H](Cc1ccccc1)C(=O)O; X1 = O=C([C@H]1COCCN1[*:1])[*:2]; dNMeF = CN[C@H](Cc1ccccc1)C(=O)O; dPip(4-aza) = O=C(O)[C@H]1CNCCN1; NMeNle = CCCC[C@H](NC)C(=O)O; Pip = O=C(O)[C@@H]1CCCCN1; hSer = N[C@@H](CCO)C(=O)O; NMeA = CN[C@@H](C)C(=O)O; Orn = NCCC[C@H](N)C(=O)O; Dab = NCC[C@H](N)C(=O)O; Dap = NC[C@H](N)C(=O)O; ξPip = O=C(O)C1CCCCN1; ξP = O=C(O)C1CCCN1; ξC = NC(CS)C(=O)O; Sar = CNCC(=O)O

What follows are compounds tested against T1, Human PD-L1/PD-1 (Homo sapiens, UniProt Q9NZQ7) (assay: HTRF Human PD-L1/PD-1 binding assay (PD-1-Ig/PD-L1-His)). Conditions: PD-L1-His 10 nM, PD-1-Ig 20 nM; class symbol; read-out: HTRF Human PD-L1/PD-1 Binding Assay IC50 Range.
T1 construct: TVMV protease cleavage site (C); made in house; host or cells: HEK293T cells
How it was run: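 Soluble HEK293T-expressed proteins: hPD-L1-His 10 nM, hPD-1-Ig 20 nM final. Cpd + PD-L1 15 min, + PD-1 15 min, + Eu anti-Ig 1 nM/APC anti-His 20 nM 30 min. Buffer dPBS, 0.1% BSA, 0.05% Tween-20. TR-FRET 665/620.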

T1 sequence (Q9NZQ7 with tags, fused parts or gaps): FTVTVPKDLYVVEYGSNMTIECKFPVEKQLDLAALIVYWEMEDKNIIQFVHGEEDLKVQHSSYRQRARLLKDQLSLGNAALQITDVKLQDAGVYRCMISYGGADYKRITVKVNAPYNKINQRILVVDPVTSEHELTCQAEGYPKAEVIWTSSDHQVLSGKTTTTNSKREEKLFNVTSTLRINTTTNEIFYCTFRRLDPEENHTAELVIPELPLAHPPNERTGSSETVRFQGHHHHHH

IC50 [nM] | SMILES
1000 to 10000 | CCCC[C@H]1C(=O)N[C@@H](CC(N)=O)C(=O)N2CCC[C@H]2C(=O)N[C@@H](CO)C(=O)N[C@@H](CCO)C(=O)N2CCC[C@H]2C(=O)N[C@@H](Cc2c[nH]c3ccccc23)C(=O)N[C@@H](CN)C(=O)N[C@@H](Cc2c[nH]c3ccccc23)C(=O)N(C)[C@@H](C)C(=O)N(C)[C@@H](C)C(=O)N[C@@H](CCCNC(=N)N)C(=O)NC(C(=O)NCC(N)=O)CSCC(=O)N[C@@H](Cc2ccc(O)cc2)C(=O)N1C (stereo partly drawn) [Example 10202] ({CH2CO}-Y[NMeNle]NPS[hSer]PW[Dap]W[NMeA][NMeA]R[ξC]G-NH2; thioether N-14)
1 to 9.9 | CCCC[C@H]1C(=O)N(C)[C@@H](CCCC)C(=O)N[C@@H](CCCNC(=N)N)C(=O)N[C@H](C(=O)NCC(N)=O)CSCC(=O)N[C@@H](Cc2ccc(C)cc2)C(=O)N(C)[C@@H](C)C(=O)N[C@@H](CC(N)=O)C(=O)N2CCC[C@H]2C(=O)N[C@@H](Cc2cnc[nH]2)C(=O)C[C@@H](CC(C)C)C(=O)N2C[C@H](O)C[C@H]2C(=O)N[C@@H](Cc2c[nH]c3ccccc23)C(=O)N[C@@H](CO)C(=O)N[C@@H](Cc2c[nH]c3ccccc23)C(=O)N1C [Example 7071] ({CH2CO}-[Phe(4-Me)][NMeA]NP[X10][Hyp]WSW[NMeNle][NMeNle]RCG-NH2; thioether N-13)
10 to 99.9 | CCCC[C@H]1C(=O)N[C@@H](Cc2ccc(O)cc2)C(=O)N2CCC[C@@H]2C(=O)N[C@@H](Cc2c[nH]c3ccccc23)C(=O)N[C@@H](Cc2ccc(O)cc2)C(=O)N[C@@H](CC(C)C)C(=O)N[C@H](C(=O)NCC(N)=O)CSCC(=O)N[C@@H](Cc2cc(F)c(F)c(F)c2)C(=O)N(C)[C@@H](Cc2ccccc2)C(=O)N(C)[C@@H](CCCC)C(=O)N2CCC[C@@H]2C(=O)N[C@@H](CC(=O)O)C(=O)N[C@@H](C(C)C)C(=O)N1C [Example 9213] ({CH2CO}-[Phe(3,4,5-F3)][NMeF][NMeNle][dP]DV[NMeNle]Y[dP]WYLCG-NH2; thioether N-13)
1 to 9.9 | CCCC[C@H]1C(=O)N(C)[C@@H](CCCC)C(=O)N[C@@H](CCC(=O)O)C(=O)N[C@H](C(=O)NCC(N)=O)CSCC(=O)N[C@@H](Cc2ccc(O)cc2)C(=O)N(C)[C@@H](C)C(=O)N[C@@H](CC(=O)O)C(=O)N2CCC[C@H]2C(=O)N[C@@H](Cc2c[nH]cn2)C(=O)N[C@@H](CCC(N)=O)C(=O)N2C[C@H](O)C[C@H]2C(=O)N[C@@H](Cc2c[nH]c3ccccc23)C(=O)N[C@@H](CO)C(=O)N[C@@H](Cc2csc3ccccc23)C(=O)N1C [Example 5215] ({CH2CO}-Y[NMeA]DPHQ[Hyp]WS[Bta][NMeNle][NMeNle]ECG-NH2; thioether N-14)
1 to 9.9 | CCCC[C@H]1C(=O)N(C)[C@@H](CCCC)C(=O)N[C@@H](CCCN)C(=O)NC(C(=O)NCC(N)=O)CSCC(=O)N[C@@H](Cc2ccc(O)cc2)C(=O)N(C)[C@@H](C)C(=O)N[C@@H](CC(N)=O)C(=O)N2CCC[C@H]2C(=O)N[C@@H](CC(N)=O)C(=O)N[C@@H](CC(C)C)C(=O)N2CCC[C@H]2C(=O)N[C@@H](Cc2c[nH]c3ccccc23)C(=O)N[C@@H](CO)C(=O)N[C@@H](Cc2c[nH]c3ccccc23)C(=O)N1C (stereo partly drawn) [Example 9155] ({CH2CO}-Y[NMeA]NPNLPWSW[NMeNle][NMeNle][Orn][ξC]G-NH2; thioether N-14)
10 to 99.9 | CCCC[C@H]1C(=O)N(C)[C@@H](CCCC)C(=O)N[C@@H](CCC(=O)O)C(=O)NC(C(=O)NCC(N)=O)CSCC(=O)N[C@@H](Cc2ccc(O)cc2)C(=O)N(C)[C@@H](C)C(=O)N[C@@H](CC(N)=O)C(=O)N2CCC[C@H]2C(=O)N[C@@H](CC(N)=O)C(=O)N[C@@H](CC(C)C)C(=O)N2CCC[C@H]2C(=O)N[C@@H](Cc2c[nH]c3ccccc23)C(=O)N[C@@H](CCO)C(=O)N[C@@H](Cc2c[nH]c3ccccc23)C(=O)N1C (stereo partly drawn) [Example 9184] ({CH2CO}-Y[NMeA]NPNLPW[hSer]W[NMeNle][NMeNle]E[ξC]G-NH2; thioether N-14)
10 to 99.9 | CCCC[C@H]1C(=O)N2C[C@H](O)C[C@@H]2C(=O)N[C@@H](CC(=O)O)C(=O)N[C@@H](C(C)C)C(=O)N(C)[C@@H](Cc2ccccc2)C(=O)N[C@@H](CCOC)C(=O)N2CCOC[C@@H]2C(=O)N[C@@H](Cc2c[nH]c3ccccc23)C(=O)N[C@@H](Cc2ccc(O)cc2)C(=O)N[C@@H](CC(C)C)C(=O)N[C@H](C(=O)NCC(N)=O)CSCC(=O)N[C@@H](Cc2cc(F)c(F)c(F)c2)C(=O)N(C)[C@@H](Cc2ccccc2)C(=O)N1C [Example 10194] ({CH2CO}-[Phe(3,4,5-F3)][NMeF][NMeNle][d(cisHyp)]DV[NMeF][hSer](Me)[X1]WYLCG-NH2; thioether N-13)
10 to 99.9 | CCCC[C@H]1C(=O)N(C)[C@@H](CCCC)C(=O)N[C@@H](CC(C)C)C(=O)N[C@H](C(=O)NCC(N)=O)CSCC(=O)N[C@@H](Cc2ccc(O)cc2)C(=O)N(C)[C@@H](C)C(=O)N[C@@H](CC(N)=O)C(=O)N2CCCC2C(=O)N[C@@H](Cc2cnc[nH]2)C(=O)N[C@@H](CCC(N)=O)C(=O)N[C@H](C)C(=O)N[C@@H](Cc2c[nH]c3ccccc23)C(=O)N[C@@H](CO)C(=O)N[C@@H](Cc2c[nH]c3ccccc23)C(=O)N1C (stereo partly drawn) [Example 6168] ({CH2CO}-Y[NMeA]N[ξP]HQ[dA]WSW[NMeNle][NMeNle]LCG-NH2; thioether N-14)
1 to 9.9 | CCCC[C@H]1C(=O)N2C[C@H](O)C[C@@H]2C(=O)N[C@@H](CC(=O)O)C(=O)N[C@@H](C(C)C)C(=O)N(C)[C@H](Cc2ccccc2)C(=O)N[C@@H](CCN)C(=O)N2C[C@H](O)C[C@@H]2C(=O)N[C@@H](Cc2c[nH]c3ccccc23)C(=O)N[C@@H](Cc2ccc(O)cc2)C(=O)N[C@@H](CC(C)C)C(=O)N[C@H](C(=O)NCC(N)=O)CSCC(=O)N[C@@H](Cc2ccc(F)c(F)c2)C(=O)N(C)[C@@H](Cc2ccccc2)C(=O)N1C [Example 9299] ({CH2CO}-[Phe(3,4-F2)][NMeF][NMeNle][d(cisHyp)]DV[dNMeF][Dab][d(cisHyp)]WYLCG-NH2; thioether N-13)
1 to 9.9 | CCCC[C@H]1C(=O)N(C)[C@@H](CCCC)C(=O)N[C@@H](CN)C(=O)N[C@H](C(=O)NCC(N)=O)CSCC(=O)N[C@@H](Cc2ccc(O)cc2)C(=O)N2CCCC[C@H]2C(=O)N[C@@H](CC(N)=O)C(=O)N2CCC[C@H]2C(=O)N[C@@H](CN)C(=O)N[C@@H](CCC(=O)O)C(=O)N2C[C@H](O)C[C@H]2C(=O)N[C@@H](Cc2c[nH]c3ccccc23)C(=O)N[C@@H](CCN)C(=O)N[C@@H](Cc2c[nH]c3ccccc23)C(=O)N1C [Example 1519] ({CH2CO}-Y[Pip]NP[Dap]E[Hyp]W[Dab]W[NMeNle][NMeNle][Dap]CG-NH2; thioether N-14)
1 to 9.9 | CCCC[C@H]1C(=O)N2C[C@H](O)C[C@@H]2C(=O)N[C@@H](CC(=O)O)C(=O)N[C@@H](C(C)C)C(=O)N(C)[C@@H](Cc2ccccc2)C(=O)N[C@@H](Cc2ccc(O)cc2)C(=O)N2CCNC[C@@H]2C(=O)N[C@@H](Cc2c[nH]c3ccccc23)C(=O)N[C@@H](Cc2ccc(O)cc2)C(=O)N[C@@H](CC(C)C)C(=O)N[C@H](C(=O)NCC(N)=O)CSCC(=O)N[C@@H](Cc2cc(F)c(F)c(F)c2)C(=O)N(C)[C@@H](Cc2ccccc2)C(=O)N1C [Example 10168] ({CH2CO}-[Phe(3,4,5-F3)][NMeF][NMeNle][d(cisHyp)]DV[NMeF]Y[dPip(4-aza)]WYLCG-NH2; thioether N-13)
10 to 99.9 | CCCC[C@H]1C(=O)N(C)[C@@H](CCCC)C(=O)N[C@@H](CCCN)C(=O)N[C@H](C(=O)NCC(N)=O)CSCC(=O)N[C@@H](Cc2ccc(O)cc2)C(=O)N2CCCCC2C(=O)N[C@@H](CC(=O)O)C(=O)N2CCC[C@H]2C(=O)N[C@@H](Cc2c[nH]cn2)C(=O)N[C@@H](CCC(=O)O)C(=O)N2C[C@H](O)C[C@H]2C(=O)N[C@@H](Cc2c[nH]c3ccccc23)C(=O)N[C@@H](CCN)C(=O)N[C@@H](Cc2c[nH]c3ccccc23)C(=O)N1C (stereo partly drawn) [Example 1531] ({CH2CO}-Y[ξPip]DPHE[Hyp]W[Dab]W[NMeNle][NMeNle][Orn]CG-NH2; thioether N-14)
1 to 9.9 | CCCC[C@H]1C(=O)N(C)[C@@H](C)C(=O)N[C@@H](CCCNC(=N)N)C(=O)NC(C(=O)NCC(N)=O)CSCC(=O)N[C@@H](Cc2ccc(O)cc2)C(=O)N(C)[C@@H](C)C(=O)N[C@@H](CC(N)=O)C(=O)N2CCC[C@H]2C(=O)N[C@@H](CC(N)=O)C(=O)N[C@@H](CC(C)C)C(=O)N2C[C@H](O)C[C@H]2C(=O)N[C@@H](Cc2c[nH]c3ccccc23)C(=O)N[C@@H](CO)C(=O)N[C@@H](Cc2csc3ccccc23)C(=O)N1C (stereo partly drawn) [Example 9139] ({CH2CO}-Y[NMeA]NPNL[Hyp]WS[Bta][NMeNle][NMeA]R[ξC]G-NH2; thioether N-14)
1 to 9.9 | CCCC[C@H]1C(=O)N(C)[C@@H](CCCC)C(=O)N[C@@H](C)C(=O)N[C@H](C(=O)NCC(N)=O)CSCC(=O)N[C@@H](Cc2ccc(O)cc2)C(=O)N2CCNC[C@H]2C(=O)N[C@@H](CC(N)=O)C(=O)N2CCC[C@H]2C(=O)N[C@@H](Cc2c[nH]cn2)C(=O)N[C@@H](CC(C)C)C(=O)N2C[C@H](O)C[C@H]2C(=O)N[C@@H](Cc2c[nH]c3ccccc23)C(=O)N[C@@H](CO)C(=O)N[C@@H](Cc2c[nH]c3ccccc23)C(=O)N1C [Example 1529]

Same assay, conditions: PD-L1-His 10 nM, PD-1-Ig 20 nM; read-out: HTRF Human PD-L1/PD-1 Binding Assay IC50

IC50 [nM] | SMILES
10000 | CCCC[C@H]1C(=O)N(C)CC(=O)N[C@@H](CC(=O)O)C(=O)N[C@@H](C(C)C)C(=O)N[C@@H](Cc2c[nH]c3ccccc23)C(=O)N[C@@H](Cc2c[nH]c3ccccc23)C(=O)N(C)CC(=O)N[C@@H](Cc2c[nH]c3ccccc23)C(=O)N[C@@H](Cc2ccc(O)cc2)C(=O)N[C@@H](CC(C)C)C(=O)N[C@H](C(=O)NCC(N)=O)CSCC(=O)N[C@@H](Cc2ccccc2)C(=O)N(C)[C@@H](Cc2ccccc2)C(=O)N1C [Example 3234] ({CH2CO}-F[NMeF][NMeNle][Sar]DVWW[Sar]WYLCG-NH2; thioether N-13)
